According to patent publication US12102685B2, “Immodulator peptides covalently modified with small molecules” (priority 2020, dated 2024):
Marks after values point to notes of the source that are not given here. Peptide text beside a SMILES is read from it.

Assays:
[1] = Binding to Echelon PPI Arrays (x9B); design: key: 0=no binding; 1=low binding; 2=medium binding; 3=high binding; conditions: 100 pmol PPI spot, colorimetric readout
From the text: Binding of immodulator peptides to Echelon PPI Arrays. PPI arrays were purchased from Echelon Biosciences (Sal Lake City, UT) and used according to the manufacturer's recommendations. Colorimetric readout from each 100 pmol PPI spot in the array is expressed as 0=no binding, 1=low binding, 2=medium binding and 3=high binding. […] In addition, IM3 and IM5 show slight binding to PI(3,4,5)P3.

[2] = Binding to heparin-agarose spin column (x3D); conditions: 1 ug SA488-labelled peptide
Description: 1 ug Streptavidin-Alexa 488 conjugate (SA488)-labelled IM peptide in PBS buffer was loaded on a spin column packed with 0.2 ml bed volume heparin-agarose (G-Biosciences, St. Louis, MO). The column was centrifuged for 2 min at 2,000 G and the flow-through was collected. The column was then washed with 0.3 ml 1% BSA in PBS buffer and the column spin repeated. Flowthrough and wash were pooled and duplicate 20 uL aliquots counted in a standard fluorometer (excitation/emission 485/525 nm). Results are expressed as percentage of input counts that bound the heparin-agarose column, versus flowthrough. Percent counts bound to heparin-agarose resin are shown below. IM3, IM5 and IM6 peptides bind heparin-agarose in this assay.

[3] = FITC-PI(4,5)P2 binding to plate-bound peptide with calcium (x9A)
Description: (§1) Immodulator peptides IM1, IM3 and IM5 (400 ng/well) in PBS were bound to streptavidin-coated 96-well plates at room temperature for 60 minutes, in the presence or absence of 500 uM calcium chloride. Each well also received 200 ng cold PPI plus 10 ng FITC-labeled PI(4,5)P2 or PI(4)P1. The tables below show the relative fluorescence (with/without calcium background) expressed as a percentage of the highest binder, FITC-PI(4,5)P2+cold PI(3,5)P2, which was 2,496 fluorescence units. Background binding without calcium was, in all cases, 200-300 fluorescence units.

[4] = Alexa488-SA-labelled IM1-IM6 binding to metal-charged NTA-coated plate (x2B d); conditions: no peptide background = 1.0
Description: NTA-metal-affinity fluorescence assay was performed using 96-well NTA-metal-coated plates readily available from commercial sources such as Qiagen (Germantown, MD). NTA was charged with ferrous or ferric iron, zinc, copper, calcium, vanadium, ruthenium, cobalt, titanium, manganese or other metals. 400 ng of FITC-labeled immodulator peptide (or biotinylated immodulator peptide complexed to Alexa-488-labeled streptavidin) in PBS buffer was added per plate. After incubation at room temperature for 60 minutes, excess peptide was washed off and peptide was detected by measuring fluorescence (excitation 490 nm, emmission 525 nm) in a fluorometer. • (a) Using FITC-labeled IM3 peptide (1 ug/well) in the fluorescent binding assay: • EDTA-treated control: 2,251±1,186 • Ferrous iron: 170,441±11,264 (p<0.001)* • Copper: 13,644±5566 (p<0.05)* • Calcium: 48,822±11,990 (p<0.01)* • *p values are relative to EDTA-treated control • (b) Competition binding assay to ferrous iron, calcium, copper and zinc-charged NTA-coated plates using FITC-labeled IM3 peptide (0.5 uM) and 8× (4 uM) unlabelled competitor peptides IM3N1, IM3N2 (*all comparisons to PBS control are p<0.01); # fluorescent value of binding to […] was set at 100.
Ferrous iron # (100±2.6*); Control (no metal): 6.4±3.1; Ferric iron: 94.1±6.6*; Calcium: 47.6±3.7*; Vanadium: 53.9±5.5*; Manganese: 54.4±11.2*; Cobalt: 25.4±2.3*; Copper: 58.4±6.4*; Zinc: 71.4±8.3*; Ruthenium: 67.8±8.3*; (d) Alexa488-SA-labelled immodulator peptide IM1, IM2, IM3, IM4, IM5, IM6 (400 ng/well) were bound to NTA-coated plate charged with the indicated metals: # background (no peptide) control set to 1.0;*p<0.05, **p<0.01 vs “no peptide”

[5] = molecular target: T1, AA111-228 DNA-binding domain of RXR-alpha (RXRa-DBD) (Homo sapiens, UniProt P19793); assay: Binding to RXRa-DBD (x3A); conditions: 1 ug/well RXRa-DBD, 800 ng/well SA488-labelled peptide; background subtracted
T1 construct: purchased Abcam, Cambridge, MA
T1 sequence (P19793 111-228): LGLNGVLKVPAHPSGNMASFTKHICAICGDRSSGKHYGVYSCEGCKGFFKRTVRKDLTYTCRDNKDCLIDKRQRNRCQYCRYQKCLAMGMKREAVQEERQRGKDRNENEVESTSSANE
Description: Binding of immodulator peptides to AA111-228 DNA-binding domain of RXR-alpha (RXRa-DBD). 1 ug/well recombinant RXRa-DBD (Abcam, Cambridge, MA) was adsorbed to wells of a 96-well plate for 60 minutes at RT, then blocked with 200 uL 1% BSA in PBS buffer overnight. Plate was washed and 800 ng/well Streptavidin-Alexa 488 conjugate (SA488)-labelled IM peptide was added. The plate was incubated for 60 min at room temperature, washed and counted in a standard fluorometer (excitation/emission 485/525 nm). Background (buffer alone) was subtracted.

[6] = FITC-PI(4)P1 binding to plate-bound peptide with calcium (x9A)
Description: as §1

N=C(N)NCCC[C@H](NC(=O)CNC(=O)[C@H](CCCCN)NC(=O)[C@H](CO)NC(=O)[C@@H]1CCCN1C(=O)[C@H](CCCNC(=N)N)NC(=O)[C@H](CS)NC(=O)[C@H](CCC(N)=O)NC(=O)[C@H](CCCCN)NC(=O)[C@H](CCCCN)NC(=O)[C@H](CCCCN)NC(=O)[C@H](Cc1ccc(O)cc1)NC(=O)[C@H](Cc1ccccc1)NC(=O)CNC(=O)[C@H](CCCCN)NC(=O)[C@@H](N)CCCCN)C(=O)N[C@@H](CCCCN)C(=O)N[C@@H](CCCNC(=N)N)C(=O)NCC(=O)N[C@@H](Cc1ccccc1)C(=O)N[C@@H](CS)C(=O)N[C@@H](Cc1c[nH]c2ccccc12)C(=O)O [IM3] (H-KKGFYKKKQCRPSKGRKRGFCW-OH; N-terminus and C-terminus assumed)
binding to PI spot [1]: 0 | binding to PI(3,4,5)P3 spot [1]: 1 | binding to PI(4)P1 spot [1]: 0 | binding to PI(4,5)P2 spot [1]: 3 | Percent Flowthrough [2]: 2.3% | Percent retained [2]: 97.7% | fluorescence of the highest binder ([3]; FITC-PI(4,5)P2 + cold PI(3,5)P2, calcium): 2,496 fluorescence units | relative fluorescence, FITC-PI(4,5)P2 bound ([3]; cold PPI: 3,4,5-P3, calcium): 3.2 percentage of the highest binder | relative fluorescence, FITC-PI(4,5)P2 bound ([3]; cold PPI: 3,4-P2, calcium): 51.5 percentage of the highest binder | relative fluorescence, FITC-PI(4,5)P2 bound ([3]; cold PPI: 3,5-P2, calcium): 100.0 percentage of the highest binder | relative fluorescence, FITC-PI(4,5)P2 bound ([3]; cold PPI: 3-P1, calcium): 1.7 percentage of the highest binder | relative fluorescence, FITC-PI(4,5)P2 bound ([3]; cold PPI: 4,5-P2, calcium): 63.7 percentage of the highest binder | relative fluorescence, FITC-PI(4,5)P2 bound ([3]; cold PPI: 4-P1, calcium): 6.3 percentage of the highest binder | relative fluorescence, FITC-PI(4,5)P2 bound ([3]; cold PPI: 5-P1, calcium): 10.4 percentage of the highest binder | relative fluorescence, FITC-PI(4,5)P2 bound ([3]; cold PPI: None, 500 uM calcium chloride): 2.2 percentage of the highest binder | fluorescence ([4]; Calcium): 28.7 ± 0.7** | fluorescence ([4]; Copper): 6.2 ± 0.2** | fluorescence ([4]; Ferrous iron, 400 ng/well): 24.7 ± 1.6** | fluorescence ([4]; Zinc): 32.0 ± 0.7** | fluorescence [5]: 6,572±129 | relative fluorescence, FITC-PI(4)P1 bound ([6]; cold PPI: 3,4,5-P3): 1.2 percentage of the highest binder | relative fluorescence, FITC-PI(4)P1 bound ([6]; cold PPI: 3,4-P2): 2.4 percentage of the highest binder | relative fluorescence, FITC-PI(4)P1 bound ([6]; cold PPI: 3,5-P2): 5.6 percentage of the highest binder | relative fluorescence, FITC-PI(4)P1 bound ([6]; cold PPI: 3-P1): 2.5 percentage of the highest binder | relative fluorescence, FITC-PI(4)P1 bound ([6]; cold PPI: 4,5-P2): 0.1 percentage of the highest binder | relative fluorescence, FITC-PI(4)P1 bound ([6]; cold PPI: 4-P1): 2.4 percentage of the highest binder | relative fluorescence, FITC-PI(4)P1 bound ([6]; cold PPI: 5-P1): 1.9 percentage of the highest binder | relative fluorescence, FITC-PI(4)P1 bound ([6]; cold PPI: None): 2.5 percentage of the highest binder
